Data published in patent US20240166609A1, “ANTIBACTERIAL COMPOUNDS” (BLACKSMITH MEDICINES, INC., priority 2021, published 2024).
In brackets after ≈: the same amount, converted by molar mass.

How the values were obtained:
K. pneumoniae LpxC = K. pneumoniae LpxC (Klebsiella pneumoniae subsp. pneumoniae, UniProt A6T4N9); experiment: LpxC Binding Assay (Rapid Fire MS assay); assay type: biochemical
E. coli LpxC = biological target: T1, E. coli LpxC (Escherichia coli, UniProt P0A725); experiment: LpxC Binding Assay (Rapid Fire MS assay); assay type: biochemical
T1 sequence (P0A725 1-305): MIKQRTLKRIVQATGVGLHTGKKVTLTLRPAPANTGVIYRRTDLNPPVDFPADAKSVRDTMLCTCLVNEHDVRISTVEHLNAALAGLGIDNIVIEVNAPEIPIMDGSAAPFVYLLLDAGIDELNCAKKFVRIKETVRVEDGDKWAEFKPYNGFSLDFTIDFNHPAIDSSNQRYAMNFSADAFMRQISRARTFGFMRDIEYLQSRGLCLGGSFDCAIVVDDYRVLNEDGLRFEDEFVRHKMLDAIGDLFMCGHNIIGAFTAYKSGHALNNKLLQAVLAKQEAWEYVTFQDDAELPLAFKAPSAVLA
Protocol: (§1) IC50 values against E. coli and P. aeruginosa LpxC are determined using a Rapid Fire MS assay as previously described J. Med. Chem. 2012, 55, 1662-1670.

P. aeruginosa LpxC = biological target: T2, P. aeruginosa LpxC (Pseudomonas aeruginosa, UniProt P47205); experiment: LpxC Binding Assay (Rapid Fire MS assay); assay type: biochemical
T2 sequence (P47205 1-303): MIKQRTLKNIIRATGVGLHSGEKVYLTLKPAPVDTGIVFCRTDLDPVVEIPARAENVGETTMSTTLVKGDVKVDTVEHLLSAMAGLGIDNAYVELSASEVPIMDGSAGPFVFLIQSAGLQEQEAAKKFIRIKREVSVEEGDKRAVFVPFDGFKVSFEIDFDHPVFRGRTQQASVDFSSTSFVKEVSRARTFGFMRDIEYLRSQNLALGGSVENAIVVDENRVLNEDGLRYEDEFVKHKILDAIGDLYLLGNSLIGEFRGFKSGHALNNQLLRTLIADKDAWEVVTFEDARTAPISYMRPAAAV
Protocol: as §1

P. aeruginosa ATCC27835 = experiment: Bacterial susceptibility testing, MIC by broth microdilution (CLSI); assay type: cell-based; details: Pseudomonas aeruginosa, 35° C., 18-24 h, read-out: MIC (μg/mL) P. aeruginosa ATCC27835
Protocol: (§2) Minimal inhibitory concentrations (MIC) were determined by the broth microdilution method in accordance with the Clinical and Laboratory Standards Institute (CLSI) guidelines. In brief, organism suspensions were adjusted to a final inoculum between 3×10^5 and 7×10^5 colony-forming units (CFU)/mL. Drug dilutions and inocula were made in sterile, cation adjusted Mueller-Hinton Broth (Beckton Dickinson). In wells, an inoculum volume of 100 μL was mixed to 2 μL of DMSO with 2-fold serial dilutions of drug. All inoculated microdilution trays were incubated in ambient air at 35° C. for 18-24 h. Following incubation, the lowest concentration of the drug that prevented visible growth (OD600 nm<0.05) was recorded as the MIC. Performance of the assay was monitored by the use of laboratory quality-control strains and compounds with defined MIC spectrum, in accordance with CLSI guidelines

P. aeruginosa 209 PAO1 = experiment: as above; assay type: cell-based; details: Pseudomonas aeruginosa, 35° C., 18-24 h, read-out: MIC (μg/mL) P. aeruginosa 209 PAO1
Protocol: as §2

E. coli ATCC25922 = experiment: as above; assay type: cell-based; details: Escherichia coli, 35° C., 18-24 h, read-out: MIC (μg/mL) E. coli ATCC25922
Protocol: as §2

K. pneumoniae ATCC13883 = experiment: as above; assay type: cell-based; details: Klebsiella pneumoniae, 35° C., 18-24 h, read-out: MIC (μg/mL) K. pneumoniae ATCC13883
Protocol: as §2

K. pneumoniae LpxC, sequence (A6T4N9 whole entry): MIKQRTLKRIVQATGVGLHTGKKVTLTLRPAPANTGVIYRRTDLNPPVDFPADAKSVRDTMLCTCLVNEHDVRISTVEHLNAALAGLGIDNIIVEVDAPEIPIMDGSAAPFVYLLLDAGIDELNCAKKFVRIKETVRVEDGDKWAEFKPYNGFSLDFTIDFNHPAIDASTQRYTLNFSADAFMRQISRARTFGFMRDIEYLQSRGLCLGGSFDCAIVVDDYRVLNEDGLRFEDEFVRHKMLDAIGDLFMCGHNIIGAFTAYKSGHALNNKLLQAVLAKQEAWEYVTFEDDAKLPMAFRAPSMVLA

| SMILES | IC50 (K. pneumoniae LpxC) [nM] | IC50 (E. coli LpxC) [nM] | IC50 (P. aeruginosa LpxC) [nM] | MIC (P. aeruginosa ATCC27835) [µg/mL] | MIC (P. aeruginosa 209 PAO1) [µg/mL] | MIC (E. coli ATCC25922) [µg/mL] | MIC (K. pneumoniae ATCC13883) [µg/mL] |
| --- | --- | --- | --- | --- | --- | --- | --- |
| COCC(N)COc1ccc(-c2ccc(C#C[C@@H](CO)n3ccnc3[C@H](C)O)cc2)cc1 (mixture of isomers) [Compound 3, (2S)-4-(4′-(2-amino-3-methoxypropoxy)-[1,1′-biphenyl]-4-yl)-2-(2-((S)-1-hydroxyethyl)-1H-imidazol-1-yl)but-3-yn-1-ol] | 2.2 | 1.5 | 15.1 | 2 (≈ 4.59 µM) | 1 (≈ 2.3 µM) | 2 (≈ 4.59 µM) | 4 (≈ 9.18 µM) |
| COC[C@@H](O)COc1ccc(-c2ccc(C#C[C@@H](CO)n3ccnc3[C@H](C)O)cc2)cc1 [Compound 14, (S)-4-(4′-((R)-2-hydroxy-3-methoxypropoxy)-[1,1′-biphenyl]-4-yl)-2-(2-((S)-1-hydroxyethyl)-1H-imidazol-1-yl)but-3-yn-1-ol] | 0.9 | < 0.5 | 6.4 | 2 (≈ 4.58 µM) | 1 (≈ 2.29 µM) |  | 2 (≈ 4.58 µM) |
| C[C@H](O)c1nccn1CC#Cc1ccc(-c2ccc(C3CC(NCCC#N)C3)cc2)cc1 (stereo partly drawn) [Compound 18, (S)-3-((3-(4′-(3-(2-(1-hydroxyethyl)-1H-imidazol-1-yl)prop-1-yn-1-yl)-[1,1′-biphenyl]-4-yl)cyclobutyl)amino)propanenitrile] | 0.6 | < 0.5 | 8.6 | 2 (≈ 4.71 µM) | 2 (≈ 4.71 µM) |  | 0.25 (≈ 0.589 µM) |
| C[C@H](O)c1nccn1CC#Cc1ccc(-c2ccc(C3CC(NCCO)C3)cc2)cc1 (stereo partly drawn) [Compound 19, (S)-2-((3-(4′-(3-(2-(1-hydroxyethyl)-1H-imidazol-1-yl)prop-1-yn-1-yl)-[1,1′-biphenyl]-4-yl)cyclobutyl)amino)ethan-1-ol] | 0.7 | < 0.5 | 15.9 | 4 (≈ 9.63 µM) | 4 (≈ 9.63 µM) |  | 1 (≈ 2.41 µM) |
| C[C@H](O)c1nccn1CC#Cc1ccc(-c2ccc(C3CC(NC4COC4)C3)cc2)cc1 (stereo partly drawn) [Compound 20, (S)-1-(1-(3-(4′-(3-(oxetan-3-ylamino)cyclobutyl)-[1,1′-biphenyl]-4-yl)prop-2-yn-1-yl)-1H-imidazol-2-yl)ethan-1-ol] | 0.7 | < 0.5 | 11.8 | 4 (≈ 9.36 µM) | 4 (≈ 9.36 µM) |  | 0.5 (≈ 1.17 µM) |
| C[C@H](O)c1nccn1CC#Cc1ccc(-c2ccc(C3CN(C(=O)CO)C3)cc2)cc1 [Compound 21, (S)-2-hydroxy-1-(3-(4′-(3-(2-(1-hydroxyethyl)-1H-imidazol-1-yl)prop-1-yn-1-yl)-[1,1′-biphenyl]-4-yl)azetidin-1-yl)ethan-1-one] | 0.7 | < 0.5 | 12.6 | 4 (≈ 9.63 µM) | 4 (≈ 9.63 µM) |  | 1 (≈ 2.41 µM) |
| C[C@H](O)c1nccn1[C@@H](C#Cc1ccc(-c2ccc(OCC(O)CCCO)cc2)cc1)CO (stereo partly drawn) [Compound 23, 5-((4′-((S)-4-hydroxy-3-(2-((S)-1-hydroxyethyl)-1H-imidazol-1-yl)but-1-yn-1-yl)-[1,1′-biphenyl]-4-yl)oxy)pentane-1,4-diol] | 1 | 0.5 | 7.8 | 2 (≈ 4.44 µM) | 2 (≈ 4.44 µM) |  | 2 (≈ 4.44 µM) |
